ChEMBL document CHEMBL1140575, “Xanthones from Cudrania tricuspidata displaying potent alpha-glucosidase inhibition” (Bioorg Med Chem Lett, 2007)

Experiment: Inhibition of bakers yeast alpha-glucosidase by spectrophotometry
Parameters: species or system Saccharomyces cerevisiae

Compound	IC50 [µM]
C=CC(C)(C)c1c(O)cc2oc3c(CC=C(C)C)c(O)c(O)cc3c(=O)c2c1O [CUDRAXANTHONE L]	52.9
C=CC(C)(C)c1c(O)cc2oc3cc(O)c(O)c(CC=C(C)C)c3c(=O)c2c1O	35.8
C=CC(C)(C)c1c(O)cc(O)c2c(=O)c3cc(O)c4c(c3oc12)C=CC(C)(C)O4	24.9
CC(C)=CCc1c2c(c(O)c3c(=O)c4cc(O)c(O)cc4oc13)C(C)(C)C(C)O2 (stereo not drawn)	32
C=CC(C)(C)c1c(OC)cc(O)c2c(=O)c3c(CC=C(C)C)c(O)c(O)cc3oc12 [CUDRAXANTHONE D]	16.2
CC(C)=CCc1c(O)c(O)cc2c(=O)c3c(O)c4c(cc3oc12)OC(C)C4(C)C (stereo not drawn) [CUDRAXANTHONE M]	> 100
C=CC(C)(C)c1c(O)c(CC=C(C)C)c2oc3cc(O)c(O)cc3c(=O)c2c1O [MACLURAXANTHONE B]	38.2
C=CC(C)(C)c1c(O)cc(O)c2c(=O)c3c(CC=C(C)C)c(O)c(O)cc3oc12 [CUDRATRICUSXANTHONE A]	37.7
